# Assays:
# KCNH2-1A mRNA expression = test: KCNH2-1A expression in frontal cortex of neuroleptic treated rats; conditions: for effect on KCNH2-1A expression within the frontal cortex: one of three doses for 28 days, vs vehicle; for change in KCNH2-1A expression, frontal cortex: 28 days
# Procedure: (§1) Referring to FIG. 19, 8-10 rats per treatment group were treated with one of three doses of either Haloperidol (0.08, 0.6, and 1 mg/kg) or Clozapine (0.5, 5, 10 mg/kg) for 28 days (as compared to rats treated with vehicle alone). Frontal cortex expression levels of NOS3 (ABI assay Rn02132634_sl) and KCNH2-1A (ABI assay Rn01442523_ml) were normalized to the geometric mean of two housekeeping genes (GAPDH, B2M). Effects of antipsychotic treatment on gene expression were tested by linear regression with gene expression as the dependent variable. Differences between vehicle alone and the two therapeutic range equivalent dosages (0.08 and 0.6 mg/kg/day of Haloperidol; 0.5 and 5 mg/kg/day of Clozapine) were tested using post-hoc LSD.
# [1] = system: patients with schizophrenia; test: CATIE trial, time to discontinuation of olanzapine (Cox proportional hazard model); format: in vivo, human; conditions: for hazard ratio (HR) of discontinuation of medication: n=89; for Time to discontinuation, Est (COX proportional hazard model) / Time to discontinuation, HR (hazard ratio): n = 89, event = 46
# From the text: The second cohort consisted of patients randomly assigned to five medications during the Phase 1/1A (first drug assigned) of the Clinical Antipsychotic Trials of Intervention Effectiveness (CATIE), (Stroup T S, McEvoy J P, Swartz M S, et al. The National Institute of Mental Health Clinical Antipsychotic Trials of Intervention Effectiveness (CATIE) project: Schizophrenia trial design and protocol development. Schizophr. Bull. 2003; 29(1):15-31) a clinical trial to compare the effectiveness of antipsychotic drugs. Patients were initially randomly assigned to receive olanzapine, perphenazine, quetiapine, risperidone or ziprasidone under double-blind conditions and followed up for 18 months or until treatment was discontinued or switched to another antipsychotic (i.e. Phase 2). Eligible patients were 18 to 65 years of age, had received a diagnosis of schizophrenia based on DSM-IV criteria 26 and were able to take oral antipsychotic medication. The primary outcome measure in the CATIE sample was time to medication discontinuation, most often due to lack of efficacy or side-effects. PANSS ratings were included as a secondary efficacy outcome. Details on the CATIE trial methods have been previously published. (Stroup T S, McEvoy J P, Swartz M S, et al. The National Institute of Mental Health Clinical Antipsychotic Trials of Intervention Effectiveness (CATIE) project: Schizophrenia trial design and protocol development. Schizophr. Bull. 2003; 29(1):15-31.) For consistency with the NIMH inpatient study and to reduce effects of genetic heterogeneity, only Caucasian subjects were included for analysis. Because of the outpatient and parallel design of this study, information about compliance based on drug clearance is an important factor determining symptom change during the CATIE trial. (Bigos K L, Pollock B G, Coley K C, et al. Sex, race, and smoking impact olanzapine exposure. Journal of Clinical Pharmacology. 2008; 48(2):157-165; Bigos K L, Bies R R, Pollock B G, Lowy J J, Zhang F, Weinberger D R. Genetic Variation in CYP3A43 Explains Racial Difference in Olanzapine Clearance. Molecular Psychiatry. In Press.) Thus, we only analyzed treatment response from subjects on whom we had drug clearance data (N=364) (Bigos K L, Pollock B G, Coley K C, et al. Sex, race, and smoking impact olanzapine exposure. Journal of Clinical Pharmacology. 2008; 48(2):157-165). Drug clearance was estimated using population pharmacokinetic modeling of drug concentrations and used in the statistical analysis of treatment response as previously described. (Bigos K L, Pollock B G, Coley K C, et al. Sex, race, and smoking impact olanzapine exposure. Journal of Clinical Pharmacology. 2008; 48(2):157-165. Bigos K L, Bies R R, Pollock B G, Lowy J J, Zhang F, Weinberger D R. Genetic Variation in CYP3A43 Explains Racial Difference in Olanzapine Clearance. Molecular Psychiatry. In Press.)
# We genotyped three SNPs rs3900779, rs748693 and rs1036145 in KCNH2 which have been associated with schizophrenia and with expression of the novel KCNH2 3.1 isoform in human post-mortem brain. (Huffaker S J, Chen J S, Nicodemus K K, et al. A primate-specific, brain isoform of KCNH2 affects cortical physiology, cognition, neuronal repolarization and risk of schizophrenia. Nat. Med. May 2009; 15(5):509-518.) Genotypes were determined using the 5′-exonuclease fluorescent Taqman assay (assay by design or assay on demand) and the allelic discrimination was read on an ABI 7900 SDS system (Applied Biosystems, Foster City, Calif.). (Livak K J. Allelic discrimination using fluorogenic probes and the 5′ nuclease assay. Genet. Anal.-Biomol. Eng. February 1999; 14(5-6):143-149.)
# We also attempted to examine time to discontinuation of medication, which was a primary outcome measure of the CATIE trial. […]
# NOS3 mRNA expression = test: NOS3 expression in frontal cortex of neuroleptic treated rats; format: in vivo, rat; conditions: one of three doses for 28 days, vs vehicle
# Procedure: as §1
# [2] = rs748693, second genotype line (genotype not given) vs non-risk allele homozygote
# [3] = rs748693 GG genotype vs non-risk allele homozygote
# [4] = rs1036145, second genotype line (genotype not given) vs non-risk allele homozygote
# [5] = rs1036145 TT genotype vs non-risk allele homozygote
# [6] = rs3900779, second genotype line (genotype not given) vs reference
# [7] = rs3900779, third genotype line (genotype not given) vs reference
compound,measurement,setting,value
CN1CCN(C2=Nc3cc(Cl)ccc3Nc3ccccc32)CC1 [clozapine],effect on KCNH2-1A expression within the frontal cortex,KCNH2-1A mRNA expression,Neither clozapine nor haloperidol showed significant effects
Cc1cc2c(s1)Nc1ccccc1N=C2N1CCN(C)CC1 [olanzapine],times less likely to have discontinued medication,[1]; GG genotype at rs748693 vs non-risk allele homozygote,~4 times
same,hazard ratio (HR) of discontinuation of medication,"[1]; GG genotype at rs748693 vs non-risk allele homozygote, p=0.031",0.254
same,times less likely to have discontinued medication,[1]; TT genotype at rs1036145 vs non-risk allele homozygote,~5 times
same,hazard ratio (HR) of discontinuation of medication,"[1]; TT genotype at rs1036145 vs non-risk allele homozygote, p=0.033",0.208
same,"Time to discontinuation, Est (COX proportional hazard model)",[1]; [2],−0.119
same,"Time to discontinuation, HR (hazard ratio)",[1]; [2],0.888
same,"Time to discontinuation, Est (COX proportional hazard model)",[1]; [3],−1.371
same,"Time to discontinuation, HR (hazard ratio)",[1]; [3],0.254
same,"Time to discontinuation, Est (COX proportional hazard model)",[1]; [4],−0.06
same,"Time to discontinuation, HR (hazard ratio)",[1]; [4],0.942
same,"Time to discontinuation, Est (COX proportional hazard model)",[1]; [5],−1.569
same,"Time to discontinuation, HR (hazard ratio)",[1]; [5],0.208
same,"Time to discontinuation, Est (COX proportional hazard model)",[1]; [6],−0.431
same,"Time to discontinuation, HR (hazard ratio)",[1]; [6],0.65
same,"Time to discontinuation, Est (COX proportional hazard model)",[1]; [7],−0.688
same,"Time to discontinuation, HR (hazard ratio)",[1]; [7],0.503
O=C(CCCN1CCC(O)(c2ccc(Cl)cc2)CC1)c1ccc(F)cc1 [haloperidol],effect on NOS3 expression within the frontal cortex,NOS3 mRNA expression,Neither clozapine nor haloperidol showed significant effects
same,"change in KCNH2-1A expression, frontal cortex","KCNH2-1A mRNA expression; 0.08 mg/kg/day, did not reach significance (p=0.082)",slight decrease
same,"change in KCNH2-1A expression, frontal cortex","KCNH2-1A mRNA expression; 0.6 mg/kg/day, did not reach significance (p=0.119)",slight decrease
same,effect on KCNH2-1A expression within the frontal cortex,KCNH2-1A mRNA expression,Neither clozapine nor haloperidol showed significant effects

# From patent publication US8871443B2, “Schizophrenia-related isoform of KCNH2 and development of antipsychotic drugs” (The United States of America, as represented by the …, priority 2007, dated 2014)
